Assay results as given in PubChem BioAssay AID248 (DTP/NCI, 2004).
Inconclusive results and toxic doses are left out. No stated cut-off is given here; in the data, active means T/C of 150% or more; inactive means T/C below 125%.

Test system: L1210 leukemia ip in BDF1 mice, survival T/C
Assay: NCI In Vivo Anticancer Drug Screen. Data for tumor model L1210 Leukemia (intraperitoneal) in B6D2F1 (BDF1) mice
Settings: endpoint: mean survival time, higher = longer survival
Outline: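 Read-out is survival time, reported as the treated-group measurement over the vehicle-control measurement.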

[1] = dose: 100.0 mg/kg/injection, schedule: Q01DX009 (ip), vehicle: saline with Tween-80
[2] = dose: 200.0 mg/kg/injection, schedule: Q01DX009 (ip), vehicle: saline with Tween-80
[3] = dose: 400.0 mg/kg/injection, schedule: Q01DX009 (ip), vehicle: saline with Tween-80
[4] = dose: 25.0 mg/kg/injection, schedule: Q01DX009 (ip), vehicle: saline
[5] = dose: 50.0 mg/kg/injection, schedule: Q01DX009 (ip), vehicle: saline

Measured: T/C

CC(C)CN=C(N)CSS(=O)(=O)O
inactive: dose: 12.5 mg/kg/injection, schedule: Q04DX002 (ip), vehicle: Klucel (hydroxypropylcellulose) (HPC) 102 % of control | dose: 25.0 mg/kg/injection, schedule: Q04DX002 (ip), vehicle: Klucel (hydroxypropylcellulose) (HPC) 105 % of control | dose: 50.0 mg/kg/injection, schedule: Q04DX002 (ip), vehicle: Klucel (hydroxypropylcellulose) (HPC) 94 % of control | dose: 200.0 mg/kg/injection, schedule: Q04DX002 (ip), vehicle: Klucel (hydroxypropylcellulose) (HPC) 94 % of control

CC1=C(C)C(=O)C(CC2=C(C)C(=O)C(C)=C(C)C2=O)=C(C)C1=O
inactive: dose: 100.0 mg/kg/injection, schedule: Q01DX005 (ip), vehicle: saline with Tween-80 101 % of control | [1] 96 % of control | dose: 200.0 mg/kg/injection, schedule: Q01DX005 (ip), vehicle: saline with Tween-80 96 % of control | [2] 100 % of control | dose: 400.0 mg/kg/injection, schedule: Q01DX005 (ip), vehicle: saline with Tween-80 104 % of control | [3] 96 % of control

CC(C)NNC(=O)C(N)CCC(=O)O (stereo not given)
inactive: [4] 105 % of control | dose: 25.0 mg/kg/injection, schedule: Q04DX003 (ip), vehicle: saline 117 % of control | [5] 91 % of control | dose: 50.0 mg/kg/injection, schedule: Q04DX003 (ip), vehicle: saline 107 % of control | dose: 100.0 mg/kg/injection, schedule: Q01DX009 (ip), vehicle: saline 98 % of control | dose: 100.0 mg/kg/injection, schedule: Q04DX003 (ip), vehicle: saline 91 % of control | dose: 200.0 mg/kg/injection, schedule: Q01DX009 (ip), vehicle: saline 109 % of control | dose: 200.0 mg/kg/injection, schedule: Q04DX003 (ip), vehicle: saline 90 % of control | dose: 400.0 mg/kg/injection, schedule: Q01DX009 (ip), vehicle: saline 118 % of control | dose: 400.0 mg/kg/injection, schedule: Q04DX003 (ip), vehicle: saline 98 % of control

C/C(Cc1cc(C)nc(N)n1)=N\Nc1ccccc1
inactive: dose: 6.25 mg/kg/injection, schedule: Q01DX009 (ip), vehicle: Klucel (hydroxypropylcellulose) (HPC) 93 % of control | dose: 12.5 mg/kg/injection, schedule: Q01DX009 (ip), vehicle: Klucel (hydroxypropylcellulose) (HPC) 115 % of control | dose: 25.0 mg/kg/injection, schedule: Q01DX009 (ip), vehicle: Klucel (hydroxypropylcellulose) (HPC) 91 % of control

CN(C)c1nnc([N+](=O)[O-])s1
inactive: dose: 62.0 mg/kg/injection, schedule: Q04DX003 (ip), vehicle: Klucel (hydroxypropylcellulose) (HPC) 93 % of control | dose: 123.0 mg/kg/injection, schedule: Q04DX003 (ip), vehicle: Klucel (hydroxypropylcellulose) (HPC) 87 % of control

O=C(Nc1ccccc1)NC(O)C(Cl)(Cl)Cl (stereo not given)
inactive: dose: 100.0 mg/kg/injection, schedule: Q04DX003 (ip), vehicle: Klucel (hydroxypropylcellulose) (HPC) 95 % of control | dose: 200.0 mg/kg/injection, schedule: Q04DX003 (ip), vehicle: Klucel (hydroxypropylcellulose) (HPC) 95 % of control | dose: 400.0 mg/kg/injection, schedule: Q04DX003 (ip), vehicle: Klucel (hydroxypropylcellulose) (HPC) 98 % of control

Nc1nccnc1Nc1ccccc1
inactive: dose: 75.0 mg/kg/injection, schedule: Q01DX001 (ip), vehicle: other 100 % of control | dose: 150.0 mg/kg/injection, schedule: Q01DX001 (ip), vehicle: other 100 % of control | dose: 300.0 mg/kg/injection, schedule: Q01DX001 (ip), vehicle: other 100 % of control

CN(CCO)N=Nc1ccccc1C#N
inactive: dose: 12.5 mg/kg/injection, schedule: Q01DX009 (ip), vehicle: other 103 % of control | dose: 25.0 mg/kg/injection, schedule: Q01DX009 (ip), vehicle: other 91 % of control | dose: 25.0 mg/kg/injection, schedule: Q04DX003 (ip), vehicle: other 95 % of control | dose: 50.0 mg/kg/injection, schedule: Q04DX003 (ip), vehicle: other 93 % of control | dose: 100.0 mg/kg/injection, schedule: Q04DX003 (ip), vehicle: other 95 % of control | dose: 200.0 mg/kg/injection, schedule: Q04DX003 (ip), vehicle: other 98 % of control | dose: 400.0 mg/kg/injection, schedule: Q04DX003 (ip), vehicle: other 98 % of control

O=c1ccnc(/C=C/c2ccc(Cl)cc2)[nH]1
inactive: [2] 87 % of control | [3] 96 % of control

O=C1NC(=O)C(c2ccc(F)cc2)N1 (stereo not given)
inactive: dose: 50.0 mg/kg/injection, schedule: Q01DX001 (ip), vehicle: saline 100 % of control | dose: 100.0 mg/kg/injection, schedule: Q01DX001 (ip), vehicle: saline 100 % of control | dose: 200.0 mg/kg/injection, schedule: Q01DX001 (ip), vehicle: saline 97 % of control | dose: 400.0 mg/kg/injection, schedule: Q01DX001 (ip), vehicle: saline 97 % of control

ClC1(Cl)Cc2ccccc21
inactive: [1] 97 % of control | dose: 177.0 mg/kg/injection, schedule: Q04DX003 (ip), vehicle: saline with Tween-80 98 % of control | [2] 96 % of control | dose: 200.0 mg/kg/injection, schedule: Q04DX003 (ip), vehicle: saline with Tween-80 101 % of control | dose: 266.0 mg/kg/injection, schedule: Q04DX003 (ip), vehicle: saline with Tween-80 98 % of control | [3] 96 % of control | dose: 400.0 mg/kg/injection, schedule: Q04DX003 (ip), vehicle: saline with Tween-80 98 % of control | dose: 600.0 mg/kg/injection, schedule: Q04DX003 (ip), vehicle: saline with Tween-80 110 % of control

COC12C[C@]34CCCN3CC(O1)c1cc3c(cc1[C@@H]4[C@@H]2O)OCO3
inactive: [4] 105 % of control | [5] 112 % of control

CCOC(=O)N1C2OC(C(COC(C)=O)=C2COC(C)=O)N1C(=O)OCC
inactive: dose: 12.5 mg/kg/injection, schedule: Q04DX002 (ip), vehicle: saline 99 % of control | dose: 25.0 mg/kg/injection, schedule: Q04DX002 (ip), vehicle: saline 99 % of control | dose: 50.0 mg/kg/injection, schedule: Q04DX002 (ip), vehicle: saline 99 % of control

NNC(=O)OCc1ccccc1
inactive: dose: 25.0 mg/kg/injection, schedule: Q04DX002 (ip), vehicle: saline with Tween-80 100 % of control | dose: 50.0 mg/kg/injection, schedule: Q04DX002 (ip), vehicle: saline with Tween-80 100 % of control | dose: 100.0 mg/kg/injection, schedule: Q04DX002 (ip), vehicle: saline with Tween-80 100 % of control

O=C(COc1ccc(Cl)cc1Cl)OCCBr
inactive: dose: 100.0 mg/kg/injection, schedule: Q04DX002 (ip), vehicle: other 96 % of control | dose: 200.0 mg/kg/injection, schedule: Q04DX002 (ip), vehicle: other 118 % of control | dose: 400.0 mg/kg/injection, schedule: Q04DX002 (ip), vehicle: other 93 % of control

C/C(Cl)=C/CC1=C(O)c2ccccc2C(=O)C1=O
inactive: dose: 25.0 mg/kg/injection, schedule: Q01DX001 (ip), vehicle: water 104 % of control | dose: 50.0 mg/kg/injection, schedule: Q01DX001 (ip), vehicle: water 101 % of control | dose: 75.0 mg/kg/injection, schedule: Q01DX001 (ip), vehicle: water 97 % of control

CN(C)Cc1c(CC(O)(c2ccccc2)c2ccccc2)ccc2ccccc12
inactive: dose: 50.0 mg/kg/injection, schedule: Q01DX001 (ip), vehicle: carboxymethylcellulose (CMC) 96 % of control | dose: 100.0 mg/kg/injection, schedule: Q01DX001 (ip), vehicle: carboxymethylcellulose (CMC) 100 % of control | dose: 200.0 mg/kg/injection, schedule: Q01DX001 (ip), vehicle: carboxymethylcellulose (CMC) 96 % of control | dose: 400.0 mg/kg/injection, schedule: Q01DX001 (ip), vehicle: carboxymethylcellulose (CMC) 105 % of control
